Each block holds one molecule with its values, some of them ahead of it.
How the values were obtained:
[1] = biological target: T1, Phosphatidylinositol 5-phosphate 4-kinase type-2 gamma (Homo sapiens) (UniProt Q8TBX8); test: Selectivity interaction (KinomeScan (DiscoverX)) EUB0000655a PIP4K2C; settings: at 10 µM
T1 sequence (whole entry): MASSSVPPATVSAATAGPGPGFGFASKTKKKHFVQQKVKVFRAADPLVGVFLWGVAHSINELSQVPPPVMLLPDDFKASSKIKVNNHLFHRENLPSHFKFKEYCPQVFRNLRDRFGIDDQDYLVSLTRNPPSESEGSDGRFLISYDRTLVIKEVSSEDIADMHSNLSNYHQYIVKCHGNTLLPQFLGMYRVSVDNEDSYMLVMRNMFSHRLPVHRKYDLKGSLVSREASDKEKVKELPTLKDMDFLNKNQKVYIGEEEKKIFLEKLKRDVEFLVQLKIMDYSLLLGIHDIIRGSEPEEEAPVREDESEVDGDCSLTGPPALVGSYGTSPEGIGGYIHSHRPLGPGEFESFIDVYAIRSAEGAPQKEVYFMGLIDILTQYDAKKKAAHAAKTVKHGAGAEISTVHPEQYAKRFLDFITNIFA

[2] = biological target: Receptor-type tyrosine-protein kinase FLT3 (Homo sapiens) (UniProt P36888); test: Selectivity interaction (Millipore kinase profiler) EUB0000124b FLT3; settings: at 10 µM
[3] = biological target: Serine/threonine-protein kinase 32C (Homo sapiens) (UniProt Q86UX6); test: Selectivity interaction (KinomeScan (DiscoverX)) EUB0001619a STK32C; settings: at 1 µM
[4] = biological target: Serine/threonine-protein kinase WNK1 (Homo sapiens) (UniProt Q9H4A3); test: Selectivity interaction (ActivX KiNativ screen (ex vivo kinase selectivity in human PBMCs)) EUB0001619a WNK1; format: cell-based; settings: PBMC, at 1 µM
[5] = biological target: T2, SNF-related serine/threonine-protein kinase (Homo sapiens) (UniProt Q9NRH2); test: Selectivity interaction (KinomeScan (DiscoverX)) EUB0000045b SNRK
T2 sequence (whole entry): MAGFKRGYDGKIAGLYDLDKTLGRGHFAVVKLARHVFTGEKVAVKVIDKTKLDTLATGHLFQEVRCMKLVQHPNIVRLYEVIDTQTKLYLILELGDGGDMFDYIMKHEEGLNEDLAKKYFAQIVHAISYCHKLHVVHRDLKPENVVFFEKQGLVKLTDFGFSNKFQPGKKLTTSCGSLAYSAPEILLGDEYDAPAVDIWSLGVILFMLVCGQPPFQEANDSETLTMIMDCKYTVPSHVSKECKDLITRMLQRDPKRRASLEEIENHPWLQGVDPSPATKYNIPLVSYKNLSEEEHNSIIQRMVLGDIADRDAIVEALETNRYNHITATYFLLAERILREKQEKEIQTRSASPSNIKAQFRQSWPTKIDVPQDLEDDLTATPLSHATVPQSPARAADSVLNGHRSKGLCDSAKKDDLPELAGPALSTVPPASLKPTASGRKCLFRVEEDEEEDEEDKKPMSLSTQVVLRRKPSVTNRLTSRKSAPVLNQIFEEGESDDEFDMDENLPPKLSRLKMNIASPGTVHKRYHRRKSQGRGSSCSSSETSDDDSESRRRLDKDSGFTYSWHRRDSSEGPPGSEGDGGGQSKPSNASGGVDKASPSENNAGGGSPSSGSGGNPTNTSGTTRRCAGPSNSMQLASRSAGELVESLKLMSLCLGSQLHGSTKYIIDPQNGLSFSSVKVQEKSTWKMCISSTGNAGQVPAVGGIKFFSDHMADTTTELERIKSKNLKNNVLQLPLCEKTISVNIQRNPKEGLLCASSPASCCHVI

[6] = biological target: Calcium/calmodulin-dependent protein kinase type 1 (Homo sapiens) (UniProt Q14012); test: Selectivity interaction (KinomeScan (DiscoverX)) EUB0000595a CAMK1; settings: at 10 µM
[7] = biological target: Casein kinase II subunit alpha' (Homo sapiens) (UniProt P19784); test: Selectivity interaction (KinomeScan (DiscoverX)) EUB0000595a CSNK2A2; settings: at 10 µM
[8] = biological target: Platelet-derived growth factor receptor beta (Homo sapiens, UniProt P09619); test: Selectivity interaction (Kinase panel (Invitrogen)) EUB0000639a PDGFRB; settings: at 200 nM
[9] = biological target: Cyclin-dependent kinase 5/CDK5 activator 1 (Homo sapiens, UniProt Q00535)
[10] = test system: Serine/threonine-protein kinase B-raf (Homo sapiens), P15056 [V600E]; test: Selectivity interaction (KinomeScan (DiscoverX)) EUB0000229b BRAF; settings: at 1 µM
[11] = biological target: T3, Phosphatidylinositol 4,5-bisphosphate 3-kinase catalytic subunit delta isoform (Homo sapiens) (UniProt O00329); test: Selectivity interaction (KinomeScan (DiscoverX)) EUB0001049a PIK3CD; settings: at 1 µM
T3 sequence (whole entry): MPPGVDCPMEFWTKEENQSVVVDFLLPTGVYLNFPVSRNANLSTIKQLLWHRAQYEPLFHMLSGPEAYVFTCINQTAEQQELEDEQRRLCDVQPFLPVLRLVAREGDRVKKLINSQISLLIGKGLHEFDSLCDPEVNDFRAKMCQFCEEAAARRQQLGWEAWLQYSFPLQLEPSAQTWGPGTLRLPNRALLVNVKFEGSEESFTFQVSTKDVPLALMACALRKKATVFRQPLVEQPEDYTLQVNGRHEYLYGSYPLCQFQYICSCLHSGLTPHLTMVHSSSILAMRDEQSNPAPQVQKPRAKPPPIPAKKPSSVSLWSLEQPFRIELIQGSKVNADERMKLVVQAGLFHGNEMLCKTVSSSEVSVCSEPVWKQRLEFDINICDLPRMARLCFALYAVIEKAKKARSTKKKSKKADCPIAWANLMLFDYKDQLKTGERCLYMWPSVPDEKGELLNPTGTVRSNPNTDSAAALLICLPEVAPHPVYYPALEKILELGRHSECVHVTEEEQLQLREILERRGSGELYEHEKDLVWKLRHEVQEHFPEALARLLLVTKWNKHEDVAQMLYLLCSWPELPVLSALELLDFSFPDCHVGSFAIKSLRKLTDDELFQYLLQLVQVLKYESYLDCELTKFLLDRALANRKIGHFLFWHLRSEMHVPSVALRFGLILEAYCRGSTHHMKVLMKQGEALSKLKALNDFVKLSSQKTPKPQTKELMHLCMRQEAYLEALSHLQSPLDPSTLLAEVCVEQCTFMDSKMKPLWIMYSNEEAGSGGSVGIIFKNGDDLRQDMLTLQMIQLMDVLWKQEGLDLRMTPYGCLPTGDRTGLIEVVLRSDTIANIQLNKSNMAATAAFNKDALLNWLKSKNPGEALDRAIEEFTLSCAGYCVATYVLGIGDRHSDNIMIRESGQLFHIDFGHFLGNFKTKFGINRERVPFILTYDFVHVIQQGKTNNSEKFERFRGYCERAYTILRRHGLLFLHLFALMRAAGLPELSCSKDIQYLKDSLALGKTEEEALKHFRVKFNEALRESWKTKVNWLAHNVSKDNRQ

[12] = biological target: Serine/threonine-protein kinase 10 (Homo sapiens) (UniProt O94804); test: Selectivity interaction (KinomeScan (DiscoverX)) EUB0000092b STK10; settings: at 10 µM
Chain of Serine/threonine-protein kinase 10 (Homo sapiens) (O94804 whole entry, looked up): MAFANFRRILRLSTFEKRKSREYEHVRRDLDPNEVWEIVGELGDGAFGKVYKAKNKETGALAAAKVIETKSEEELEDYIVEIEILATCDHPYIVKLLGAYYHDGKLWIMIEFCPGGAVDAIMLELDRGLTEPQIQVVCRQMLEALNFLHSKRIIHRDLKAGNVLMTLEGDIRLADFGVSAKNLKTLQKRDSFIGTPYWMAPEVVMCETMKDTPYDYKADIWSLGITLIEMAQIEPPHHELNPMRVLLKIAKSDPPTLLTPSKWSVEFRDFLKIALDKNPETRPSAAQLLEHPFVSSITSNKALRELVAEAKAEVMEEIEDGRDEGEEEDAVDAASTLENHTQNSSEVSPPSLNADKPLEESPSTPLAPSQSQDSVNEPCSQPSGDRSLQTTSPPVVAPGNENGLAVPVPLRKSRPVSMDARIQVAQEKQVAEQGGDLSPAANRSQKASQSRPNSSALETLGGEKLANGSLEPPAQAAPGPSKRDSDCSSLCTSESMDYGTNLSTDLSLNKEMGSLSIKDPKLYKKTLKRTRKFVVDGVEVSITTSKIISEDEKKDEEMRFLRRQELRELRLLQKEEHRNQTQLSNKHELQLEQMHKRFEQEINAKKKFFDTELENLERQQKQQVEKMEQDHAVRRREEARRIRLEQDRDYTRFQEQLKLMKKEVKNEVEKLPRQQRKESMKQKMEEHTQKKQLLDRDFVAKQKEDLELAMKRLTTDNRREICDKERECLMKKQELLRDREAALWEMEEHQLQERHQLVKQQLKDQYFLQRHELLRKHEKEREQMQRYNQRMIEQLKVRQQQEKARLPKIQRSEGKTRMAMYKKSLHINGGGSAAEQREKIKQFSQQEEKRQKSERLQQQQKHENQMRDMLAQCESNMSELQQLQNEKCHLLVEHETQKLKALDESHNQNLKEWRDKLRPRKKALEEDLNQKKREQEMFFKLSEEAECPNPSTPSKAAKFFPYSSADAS

Chain of Receptor-type tyrosine-protein kinase FLT3 (Homo sapiens) (P36888 whole entry): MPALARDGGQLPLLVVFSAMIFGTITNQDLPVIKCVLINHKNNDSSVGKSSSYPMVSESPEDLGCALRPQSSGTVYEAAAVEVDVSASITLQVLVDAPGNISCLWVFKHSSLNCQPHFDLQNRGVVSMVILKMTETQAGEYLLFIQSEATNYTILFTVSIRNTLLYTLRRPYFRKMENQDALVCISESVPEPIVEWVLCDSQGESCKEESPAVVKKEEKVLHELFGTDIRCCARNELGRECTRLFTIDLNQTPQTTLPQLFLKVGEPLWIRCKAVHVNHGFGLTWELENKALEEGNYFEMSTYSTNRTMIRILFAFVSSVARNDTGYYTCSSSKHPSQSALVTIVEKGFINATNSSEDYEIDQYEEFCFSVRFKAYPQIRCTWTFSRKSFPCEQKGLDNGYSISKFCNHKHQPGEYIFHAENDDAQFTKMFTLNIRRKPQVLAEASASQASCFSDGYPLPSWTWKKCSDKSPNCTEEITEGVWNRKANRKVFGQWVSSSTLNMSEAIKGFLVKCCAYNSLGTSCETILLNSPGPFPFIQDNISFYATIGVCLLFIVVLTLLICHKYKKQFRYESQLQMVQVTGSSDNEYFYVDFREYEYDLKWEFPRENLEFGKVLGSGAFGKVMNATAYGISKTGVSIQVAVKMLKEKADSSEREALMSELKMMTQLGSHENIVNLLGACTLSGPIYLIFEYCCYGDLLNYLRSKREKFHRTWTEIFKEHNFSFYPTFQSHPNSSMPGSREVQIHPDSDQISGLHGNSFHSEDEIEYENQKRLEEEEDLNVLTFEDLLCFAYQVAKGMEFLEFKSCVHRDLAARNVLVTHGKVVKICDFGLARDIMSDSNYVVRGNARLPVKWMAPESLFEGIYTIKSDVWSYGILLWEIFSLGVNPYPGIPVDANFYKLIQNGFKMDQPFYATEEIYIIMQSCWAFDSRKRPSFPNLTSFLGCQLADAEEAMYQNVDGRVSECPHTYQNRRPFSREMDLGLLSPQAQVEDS
Chain of Platelet-derived growth factor receptor beta (P09619 whole entry): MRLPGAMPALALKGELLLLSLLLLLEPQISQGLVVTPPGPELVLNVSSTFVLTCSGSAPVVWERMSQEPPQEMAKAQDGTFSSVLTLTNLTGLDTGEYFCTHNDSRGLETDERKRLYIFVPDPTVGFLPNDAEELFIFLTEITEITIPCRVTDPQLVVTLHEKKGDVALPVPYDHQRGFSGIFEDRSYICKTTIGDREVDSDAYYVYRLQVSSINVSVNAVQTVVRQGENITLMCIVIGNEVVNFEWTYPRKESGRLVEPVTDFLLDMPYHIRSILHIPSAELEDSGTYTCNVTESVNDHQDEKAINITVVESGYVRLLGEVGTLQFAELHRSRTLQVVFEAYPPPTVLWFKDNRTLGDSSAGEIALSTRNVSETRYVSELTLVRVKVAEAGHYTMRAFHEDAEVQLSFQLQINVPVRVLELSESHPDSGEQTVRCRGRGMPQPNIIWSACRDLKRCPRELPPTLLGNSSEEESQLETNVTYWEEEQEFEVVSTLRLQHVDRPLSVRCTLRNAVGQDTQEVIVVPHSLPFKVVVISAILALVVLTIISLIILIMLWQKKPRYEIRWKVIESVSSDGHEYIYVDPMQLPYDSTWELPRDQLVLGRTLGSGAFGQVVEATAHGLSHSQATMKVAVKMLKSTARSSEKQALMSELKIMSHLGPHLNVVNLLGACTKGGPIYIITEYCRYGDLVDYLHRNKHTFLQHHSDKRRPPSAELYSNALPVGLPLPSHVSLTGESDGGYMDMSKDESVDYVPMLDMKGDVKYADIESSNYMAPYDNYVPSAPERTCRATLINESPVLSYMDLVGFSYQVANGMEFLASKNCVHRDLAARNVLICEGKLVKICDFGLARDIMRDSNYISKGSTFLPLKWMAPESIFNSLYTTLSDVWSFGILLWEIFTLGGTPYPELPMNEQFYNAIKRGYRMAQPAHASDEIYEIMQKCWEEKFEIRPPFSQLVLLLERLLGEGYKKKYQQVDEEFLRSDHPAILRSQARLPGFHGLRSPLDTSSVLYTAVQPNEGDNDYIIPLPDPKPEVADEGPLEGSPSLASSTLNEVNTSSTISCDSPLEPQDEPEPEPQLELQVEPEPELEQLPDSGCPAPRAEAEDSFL
Chain of Serine/threonine-protein kinase 32C (Homo sapiens) (Q86UX6 whole entry): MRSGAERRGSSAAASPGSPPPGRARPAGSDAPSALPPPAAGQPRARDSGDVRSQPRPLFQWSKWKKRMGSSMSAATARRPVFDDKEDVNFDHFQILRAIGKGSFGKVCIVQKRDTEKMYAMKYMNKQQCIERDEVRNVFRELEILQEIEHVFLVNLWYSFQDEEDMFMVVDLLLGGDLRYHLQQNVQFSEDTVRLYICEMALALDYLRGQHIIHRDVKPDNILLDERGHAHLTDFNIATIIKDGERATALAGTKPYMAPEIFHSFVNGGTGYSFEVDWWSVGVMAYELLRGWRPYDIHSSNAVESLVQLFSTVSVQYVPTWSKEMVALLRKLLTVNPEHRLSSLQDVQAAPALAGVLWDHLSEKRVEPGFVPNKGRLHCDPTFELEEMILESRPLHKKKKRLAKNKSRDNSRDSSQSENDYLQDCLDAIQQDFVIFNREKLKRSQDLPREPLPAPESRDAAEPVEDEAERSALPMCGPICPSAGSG
Chain of Calcium/calmodulin-dependent protein kinase type 1 (Homo sapiens) (Q14012 whole entry, looked up): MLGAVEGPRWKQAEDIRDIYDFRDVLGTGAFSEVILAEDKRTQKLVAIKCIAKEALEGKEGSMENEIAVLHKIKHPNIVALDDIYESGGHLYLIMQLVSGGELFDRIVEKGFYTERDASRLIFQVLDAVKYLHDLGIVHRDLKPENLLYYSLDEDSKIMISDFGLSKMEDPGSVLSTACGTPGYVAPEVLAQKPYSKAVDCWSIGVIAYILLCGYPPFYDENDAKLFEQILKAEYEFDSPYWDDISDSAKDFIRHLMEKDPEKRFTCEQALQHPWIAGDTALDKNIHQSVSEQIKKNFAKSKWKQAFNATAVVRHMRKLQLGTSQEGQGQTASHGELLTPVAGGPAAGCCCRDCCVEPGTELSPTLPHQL
Chain of Casein kinase II subunit alpha' (Homo sapiens) (P19784 whole entry, looked up): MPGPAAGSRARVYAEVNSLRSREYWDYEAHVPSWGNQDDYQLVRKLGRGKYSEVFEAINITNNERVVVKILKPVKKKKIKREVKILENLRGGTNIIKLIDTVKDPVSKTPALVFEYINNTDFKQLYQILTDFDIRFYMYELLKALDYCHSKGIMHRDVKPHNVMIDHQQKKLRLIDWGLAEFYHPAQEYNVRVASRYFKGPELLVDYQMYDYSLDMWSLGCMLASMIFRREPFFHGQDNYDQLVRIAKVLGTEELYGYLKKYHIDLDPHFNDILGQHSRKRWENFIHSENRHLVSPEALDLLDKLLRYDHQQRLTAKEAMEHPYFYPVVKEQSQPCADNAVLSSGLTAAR
Chain of Serine/threonine-protein kinase B-raf (Homo sapiens), P15056 [V600E] (P15056 whole entry V600E, canonical isoform): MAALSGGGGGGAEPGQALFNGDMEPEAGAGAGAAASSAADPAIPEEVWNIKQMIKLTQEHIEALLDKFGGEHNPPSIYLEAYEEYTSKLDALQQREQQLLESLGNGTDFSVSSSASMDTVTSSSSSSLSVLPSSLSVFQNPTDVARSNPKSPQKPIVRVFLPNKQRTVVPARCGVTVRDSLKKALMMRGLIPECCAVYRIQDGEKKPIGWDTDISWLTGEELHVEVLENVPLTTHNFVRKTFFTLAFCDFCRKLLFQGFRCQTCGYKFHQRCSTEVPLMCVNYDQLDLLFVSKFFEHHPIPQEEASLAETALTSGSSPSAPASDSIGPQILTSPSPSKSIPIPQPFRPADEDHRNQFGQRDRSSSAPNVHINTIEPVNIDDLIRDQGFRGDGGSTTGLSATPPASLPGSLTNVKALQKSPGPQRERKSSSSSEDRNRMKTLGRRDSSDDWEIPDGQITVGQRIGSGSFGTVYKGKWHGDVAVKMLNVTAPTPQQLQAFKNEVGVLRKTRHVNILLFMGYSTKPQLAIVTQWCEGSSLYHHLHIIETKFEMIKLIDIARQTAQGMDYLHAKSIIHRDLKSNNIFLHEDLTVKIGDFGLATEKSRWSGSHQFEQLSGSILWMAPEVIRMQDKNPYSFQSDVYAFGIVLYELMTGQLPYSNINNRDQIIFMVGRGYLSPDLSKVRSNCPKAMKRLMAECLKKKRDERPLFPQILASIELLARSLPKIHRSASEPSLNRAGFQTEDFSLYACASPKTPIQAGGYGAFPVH

Compound: CN(C)CCOc1ccc(-c2nc(-c3ccncc3)c(-c3ccc4c(c3)CC/C4=N\O)[nH]2)cc1
% of control [1]: 100%

% of control [2]: 107%
Compound: CC(=O)Nc1cccc(-n2c(=O)n(C3CC3)c(=O)c3c(Nc4ccc(I)cc4F)n(C)c(=O)c(C)c32)c1

Compound: N#Cc1cccc(-c2c[nH]c3ncnc(N4CCOCC4)c23)c1
% of control [3]: 100%
% of inhibition [4]: -1%

Compound: C=CC(=O)Nc1cc(-n2c(=O)ccc3cnc4ccc(-c5ccc(NS(C)(=O)=O)cc5)cc4c32)ccc1C
% of control ([5]; at 1 µM): 100%
% of control ([5]; at 10 µM): 58%

Compound: COCC(=O)NC/C=C/c1ccc2ncnc(Nc3ccc(Oc4ccc(C)nc4)c(C)c3)c2c1 [CP-724714]
% of control [6]: 72%
% of control [7]: 100%

% of inhibition [8]: -2.22%
Compound: CC[C@@H]1[C@H](F)C(=O)N[C@@H]1COc1nccc2cc(C(N)=O)c(OC)cc12 [ZIMLOVISERTIB]

IC50 [9]: > 10 µM
Compound: CCc1cccc(CC)c1NC(=O)c1nn(C)c2c1CCc1cnc(Nc3ccc(C(=O)NC4CCN(C)CC4)cc3OC(F)(F)F)nc1-2

Compound: COc1cc(N(C)c2ccnc3ccc(C(F)(F)F)cc23)cc(OC)c1OC
% binding [10]: 78%

Compound: COc1cc(Nc2nc(C)cc(-c3cnn4nc(OC)ccc34)n2)cc(C(F)(F)F)c1
% of control [11]: 88%

Compound: CCC(=O)N1CCN(c2ccc(-n3c(=O)ccc4cnc5ccc(-c6cnc7ccccc7c6)cc5c43)cc2C(F)(F)F)CC1
% of control [12]: 79%

Reference: ChEMBL document CHEMBL5465560, “Selectivity Literature for EUbOPEN Chemogenomic Library” (2024)
